The text below walks through data of patent US20220388957A1, “COMPOUNDS AND COMPOSITIONS FOR TREATING CONDITIONS ASSOCIATED WITH STING ACTIVITY” (IFM Due, Inc., priority 2019, published 2022).

T1 sequence (Q86WV6 whole entry R71H/G230A/H232R/R293Q): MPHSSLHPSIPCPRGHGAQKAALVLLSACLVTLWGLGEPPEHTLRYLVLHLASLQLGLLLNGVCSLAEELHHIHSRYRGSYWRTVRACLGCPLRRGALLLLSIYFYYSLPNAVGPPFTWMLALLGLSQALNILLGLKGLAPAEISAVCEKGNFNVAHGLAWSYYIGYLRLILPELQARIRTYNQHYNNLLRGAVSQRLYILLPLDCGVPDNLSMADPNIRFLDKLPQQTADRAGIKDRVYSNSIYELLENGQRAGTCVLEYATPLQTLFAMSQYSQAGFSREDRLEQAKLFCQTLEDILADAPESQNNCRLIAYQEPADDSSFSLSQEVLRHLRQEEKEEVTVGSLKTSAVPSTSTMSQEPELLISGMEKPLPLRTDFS

One assay concerns the target T1, Human STING (Homo sapiens, UniProt Q86WV6, G230A/H232R/R293Q/R71H).
T1 construct: host or cells: THP1-Dual KO-IFNAR2 cells (human monocytic reporter line)
Nature of the assay: STING reporter assay (luciferase) in THP1-Dual KO-IFNAR2 cells stimulated with 2′3′cGAMP. It counts as cell-based. Particulars: 2′3′cGAMP 15 μM, 24 h, class symbols. How it is done: STING pathway activation by the compounds described herein was measured using THP1-Dual™ cells (KO-IFNAR2).
THP1-Dual™ KO-IFNAR2 Cells (obtained from invivogen) were maintained in RPMI, 10% FCS, 5 ml P/S, 2 mM L-glut, 10 mM Hepes, and 1 mM sodium pyruvate. Compounds were spotted in empty 384 well tissue culture plates (Greiner 781182) by Echo for a final concentration of 0.0017-100 μM. Cells were plated into the TC plates at […], 2×10E6 cells/mL. For activation with STING ligand, 2′3′cGAMP (MW 718.38, obtained from Invivogen), was prepared in Optimem media.
The following solutions were prepared for each 1×384 plate: • o Solution A: 2 mL Optimem with one of the following stimuli: • 60 uL of 10 mM 2′3′cGAMP->150 μM stock • Solution B: 2 mL Optimem with 60 μL Lipofectamine 2000->Incubate 5 min at RT
2 mL of solution A and 2 ml Solution B was mixed and incubated for 20 min at room temperature (RT). 20 μL of transfection solution (A+B) was added on top of the plated cells, with a final 2′3′cGAMP concentration of 15 μM. The plates were then centrifuged immediately at 340 g for 1 minute, after which they were incubated at 37° C., 5% CO2, >98% humidity for 24 h. Luciferase reporter activity was then measured. EC50 values were calculated by using standard methods known in the art.
Luciferase reporter assay: 10 μL of supernatant from the assay was transferred to white 384-plate with flat bottom and squared wells. One pouch of QUANTI-Luc™ Plus was dissolved in 25 mL of water. 100 μL of QLC Stabilizer per 25 mL of QUANTI-Luc™ Plus solution was added. 50 μL of QUANTI-Luc™ Plus/QLC solution per well was then added. Luminescence was measured on a Platereader (e.g., Spectramax I3X (Molecular Devices GF3637001)).
Luciferase reporter activity was then measured. EC50 values were calculated by using standard methods known in the art.
(In general: In a reporter assay the amount or activity of a reporter protein is the signal.)
The term EC50 denotes the concentration needed to bring the measured effect to its halfway point. The compound `O=S(=O)(Nc1c[nH]c2cc(F)c(F)cc12)c1ccc2c(c1)CCCC2` [Compound 139, N-(5,6-difluoro-1H-indol-3-yl)-5,6,7,8-tetrahydro-naphthalene-2-sulfonamide] came in with an EC50 of 5 to 100 µM.

In turn, `O=S(=O)(Nc1c[nH]nc1-c1ccccc1)c1ccc(C(F)(F)F)cc1` [Compound 106] gave an EC50 of 5 to 100 µM.

In the case of `CCCCCCCCS(=O)(=O)Nc1c[nH]c2cc(F)c(F)cc12` [Compound 128, N-(5,6-difluoro-1H-indol-3-yl)octane-1-sulfonamide], the EC50 was 1 to 5 µM.

Compound `O=S(=O)(Nc1c[nH]c2cc(F)c(F)cc12)c1ccc2c(c1)CCC2` [Compound 135, N-(5,6-difluoro-1H-indol-3-yl)-2,3-dihydro-1H-indene-5-sulfonamide] registered an EC50 of 5 to 100 µM.

The compound `CC(C)c1ccc(S(=O)(=O)Nc2c[nH]c3cc(F)c(F)cc23)cc1` [Compound 141, N-(5,6-difluoro-1H-indol-3-yl)-4-isopropylbenzene-sulfonamide] had an EC50 of 5 to 100 µM.

Take `O=S(=O)(Cc1cccc(C(F)(F)F)c1)Nc1c[nH]c2cc(F)c(F)cc12` [Compound 131, N-(5,6-difluoro-1H-indol-3-yl)-1-(3-(trifluoromethyl)phenyl) methanesulfonamide]: the EC50 lay in the range of 5 to 100 µM.

Staying with this assay, now noted: 2′3′cGAMP 15 μM, 24 h, numeric bound.
Turning to `CC1CNCCC1NS(=O)(=O)c1c[nH]c2nccc(Cl)c12` (stereo not shown) [Compound 112], the concentration for a half-maximal effect (EC50) is greater than 100 µM.
